# Where a SMILES comes first, the peptide text is derived from it. Bridges are numbered along the chain shown (N, C = ends). [ ]: non-standard residue; d: D form. The star is where a group is joined. X1 = CC[C@H](C)CCCCC(=O)*; Dab = NCC[C@H](N)C(=O)O
# Key:
# Type in all cases: cell-based
# [1] = Hemolytic activity
# [2] = system: MRSA
# [3] = system: MRSE
# [4] = system: P. aeruginosa
# [5] = system: E. coli
compound,measurement,setting,value
"CC[C@H](C)CCCCC(=O)N[C@@H](CCN)C(=O)N[C@H](C(=O)N[C@@H](CCN)C(=O)N[C@H]1CCNC(=O)[C@H]([C@@H](C)O)NC(=O)[C@H](CCN)NC(=O)[C@H](CCN)NC(=O)[C@H](CC(C)C)NC(=O)[C@@H](CC(C)C)NC(=O)[C@H](CCN)NC1=O)[C@@H](C)O [Colistin, colistin] (X1-[Dab]T[Dab][Dab][Dab][dL]L[Dab][Dab]T; lactam 4-C (inferred); N-terminus assumed)",HC50,[1],> 250 µg/mL
same,Activity against MRSA (in words),[2],not active
same,MIC MRSA (Gram positive),[2]; multidrug resistant strain,>50 mg/L
same,MIC MRSE (Gram positive),[3],> 50 mg/L
same,MIC P. aeruginosa (Gram negative),[4],0.5 mg/L
same,MIC E. coli (Gram negative),[5],0.5 mg/L
